Patent US11173446B2, “Process for removal of acid gases from a fluid stream” (BASF SE, priority 2017, dated 2021)

What was measured:
[1] = pKa of the amino groups by titration with hydrochloric acid (Example 5); assay type: physicochemical; conditions: 20° C.
From the text: An aqueous amine solution (0.005 mol/L) was titrated with hydrochloric acid (0.1 mol/L).

[2] = Volatility of 30% by weight aqueous amine solutions (Example 4); assay type: physicochemical; conditions: 30% by weight aqueous solutions, 50° C.

## CC(C)(C)NCC(O)CO (centres unmarked) [TBAPD, 3-(tert-butylamino)propane-1,2-diol]
[1]
  pKA value, comparison in words: greater than that of MDEA
[2]
  volatility, comparison in words: lower volatility compared to the M3ETB, TBAEE and MDEA
